Experimental data taken from patent US11542262B2, “Phosphatidylinositol 3-kinase inhibitors” (NANJING ZHENGXIANG PHARMACEUTICALS CO., LTD., priority 2019, dated 2023).

Columns and labels:
[1] = molecular target: PI3Kγ (Homo sapiens, UniProt P48736); assay: ADP-Glo luminescent assay, enzymatic activity of PI3K gamma; type: biochemical; details: ATP 25 μM; read-out: PI3K gamma (nM) inhibitory activity (IC50)
Experimental: The compounds would be tested from 1 or 10 μM, 3-fold dilution for 10 doses, in duplicate.
Compound preparation: Dilute a compound to 100× of the final desired highest inhibitor concentration in reaction by 100% DMSO. Transfer 100 μl of this compound dilution to a well in a 96-well plate and serially dilute it with DMSO for a total of 10 concentrations.
Kinase reaction: Prepare a solution of PI3K in 1× kinase buffer at 2-fold the final concentration of each reagent in the assay. Control wells contain 1× kinase buffer without enzyme. Prepare substrate solution of PIP2 substrate and ATP in 1× kinase reaction buffer at 2-fold of the final concentration. Add concentration substrate solution to each well to the final concentration. Cover the assay plate, shake to mix, and incubate at room temperature for 1 hour. Add 5 μl of ADP-Glo reagent to each well to stop the reaction. […] Add 10 ul Kinase Detection Reagent to each well, shake 1 min, equilibrate for 30 min before reading on a luminescence plate reader.
Data Analysis: Convert RLU values to percent inhibition values as Percent inhibition=(max−sample RLU)/(max−min)*100. “min”—no enzyme control; “max”—DMSO control. Fit the data in XLFit excel add-in version 5.4.0.8 to obtain IC50 values. Y=Bottom+(Top−Bottom)/(1+(IC50/X)^HillSlope).

[2] = molecular target: T1, PI3K gamma (Mus musculus, UniProt Q9JHG7); assay: Raw264.7 cell assay: phosphorylation of AKT in C5a stimulated RAW264.7 cells (AlphaLISA); type: cell-based; details: pAKT, read-out: PI3K gamma Raw264.7 cell (nM) cellular activity (IC50)
T1 construct: endogenous in cells; host or cells: RAW264.7
T1 sequence (Q9JHG7 whole entry): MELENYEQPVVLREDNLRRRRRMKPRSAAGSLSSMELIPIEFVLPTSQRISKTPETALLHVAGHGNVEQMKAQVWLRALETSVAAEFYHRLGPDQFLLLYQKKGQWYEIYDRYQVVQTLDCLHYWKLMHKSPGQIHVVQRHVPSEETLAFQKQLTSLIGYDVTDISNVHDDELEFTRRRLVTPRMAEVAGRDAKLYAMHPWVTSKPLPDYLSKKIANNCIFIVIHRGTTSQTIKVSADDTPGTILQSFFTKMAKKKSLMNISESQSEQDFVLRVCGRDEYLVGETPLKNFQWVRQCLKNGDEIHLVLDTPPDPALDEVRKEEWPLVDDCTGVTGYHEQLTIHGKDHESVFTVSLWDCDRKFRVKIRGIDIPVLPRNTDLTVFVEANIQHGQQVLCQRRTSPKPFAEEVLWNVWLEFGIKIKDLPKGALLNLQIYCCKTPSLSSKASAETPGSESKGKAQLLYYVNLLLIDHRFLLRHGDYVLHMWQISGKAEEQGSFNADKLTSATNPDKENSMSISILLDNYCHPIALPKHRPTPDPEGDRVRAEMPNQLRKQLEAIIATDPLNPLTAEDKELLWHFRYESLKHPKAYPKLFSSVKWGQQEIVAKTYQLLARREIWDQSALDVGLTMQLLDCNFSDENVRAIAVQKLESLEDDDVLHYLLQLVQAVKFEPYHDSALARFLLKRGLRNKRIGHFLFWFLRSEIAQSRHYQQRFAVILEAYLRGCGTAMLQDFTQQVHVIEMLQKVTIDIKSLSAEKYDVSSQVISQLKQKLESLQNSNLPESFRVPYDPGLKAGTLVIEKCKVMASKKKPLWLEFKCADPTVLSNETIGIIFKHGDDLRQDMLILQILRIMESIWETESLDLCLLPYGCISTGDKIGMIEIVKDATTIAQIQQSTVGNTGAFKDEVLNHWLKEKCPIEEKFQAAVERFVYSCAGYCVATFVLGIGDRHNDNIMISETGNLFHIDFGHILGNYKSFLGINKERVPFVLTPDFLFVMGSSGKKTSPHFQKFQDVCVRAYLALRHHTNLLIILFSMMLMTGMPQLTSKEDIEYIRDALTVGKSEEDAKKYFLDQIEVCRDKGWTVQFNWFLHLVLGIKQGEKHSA
T1 sequence (Q5SW28 whole entry partner): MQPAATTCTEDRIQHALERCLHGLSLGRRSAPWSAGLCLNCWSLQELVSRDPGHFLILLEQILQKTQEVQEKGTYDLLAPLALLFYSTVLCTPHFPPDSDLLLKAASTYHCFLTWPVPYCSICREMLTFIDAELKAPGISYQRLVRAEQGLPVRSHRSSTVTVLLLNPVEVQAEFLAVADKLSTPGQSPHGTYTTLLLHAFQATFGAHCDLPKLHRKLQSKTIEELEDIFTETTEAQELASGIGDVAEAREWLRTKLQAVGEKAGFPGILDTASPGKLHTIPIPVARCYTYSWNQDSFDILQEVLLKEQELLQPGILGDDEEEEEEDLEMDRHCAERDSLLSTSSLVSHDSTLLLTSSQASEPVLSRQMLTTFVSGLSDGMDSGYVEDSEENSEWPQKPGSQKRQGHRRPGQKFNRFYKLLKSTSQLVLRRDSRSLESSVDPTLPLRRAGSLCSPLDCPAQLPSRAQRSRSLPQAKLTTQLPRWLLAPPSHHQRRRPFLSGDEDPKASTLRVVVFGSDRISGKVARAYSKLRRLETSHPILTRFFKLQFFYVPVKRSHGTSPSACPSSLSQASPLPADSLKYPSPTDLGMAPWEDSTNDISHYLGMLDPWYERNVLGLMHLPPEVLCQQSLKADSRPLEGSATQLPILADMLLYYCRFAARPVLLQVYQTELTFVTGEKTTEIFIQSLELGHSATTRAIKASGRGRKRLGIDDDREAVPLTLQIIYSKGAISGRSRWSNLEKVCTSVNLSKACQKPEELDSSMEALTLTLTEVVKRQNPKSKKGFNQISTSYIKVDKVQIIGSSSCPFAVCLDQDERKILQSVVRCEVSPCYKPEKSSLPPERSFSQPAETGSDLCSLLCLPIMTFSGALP
Experimental: This study aims to determine the inhibitory effect of compounds on PI3K gamma and PI3K delta in corresponding cell based assays. PI3K gamma activity was reflected by phosphorylation of AKT in C5a stimulated RAW264.7 cells, and PI3K delta activity was reflected by phosphorylation of AKT in anti-IgM stimulated Raji cells. Phosphorylation of AKT in cells was determined using AlphaLISA technology from PerkinElmer.
Raw264.7 cell assay: Prepare Passage 15 Raw264.7 cell and add 6 μL of 30K cells per well in 384-well plate by multidrop. Centrifuge at 500 RPM for 30 s and incubate for 2 hours at 37° C., 5% CO2. Add 30 nL compound by echo and incubate for 30 min at 37° C., 5% CO2. […] Add 2 μL of 5× lysis buffer by multidrop, incubate for 10 min on a plate shaker. Add 5 μL acceptor mix provided in the kit, centrifuge at 1000 RPM for 1 min. Add 5 μL donor mix provided in the kit, centrifuge at 1000 RPM for 1 min and incubate in dark for 2 hours at 25° C. Read AlphaLISA signal on Envision.
Y=Bottom+(Top−Bottom)/(1+10^((Log IC50−X)*Hill Slope)) X: Log of cpd concentration Y: Inhibition

PI3Kγ, sequence (P48736 whole entry, species assumed): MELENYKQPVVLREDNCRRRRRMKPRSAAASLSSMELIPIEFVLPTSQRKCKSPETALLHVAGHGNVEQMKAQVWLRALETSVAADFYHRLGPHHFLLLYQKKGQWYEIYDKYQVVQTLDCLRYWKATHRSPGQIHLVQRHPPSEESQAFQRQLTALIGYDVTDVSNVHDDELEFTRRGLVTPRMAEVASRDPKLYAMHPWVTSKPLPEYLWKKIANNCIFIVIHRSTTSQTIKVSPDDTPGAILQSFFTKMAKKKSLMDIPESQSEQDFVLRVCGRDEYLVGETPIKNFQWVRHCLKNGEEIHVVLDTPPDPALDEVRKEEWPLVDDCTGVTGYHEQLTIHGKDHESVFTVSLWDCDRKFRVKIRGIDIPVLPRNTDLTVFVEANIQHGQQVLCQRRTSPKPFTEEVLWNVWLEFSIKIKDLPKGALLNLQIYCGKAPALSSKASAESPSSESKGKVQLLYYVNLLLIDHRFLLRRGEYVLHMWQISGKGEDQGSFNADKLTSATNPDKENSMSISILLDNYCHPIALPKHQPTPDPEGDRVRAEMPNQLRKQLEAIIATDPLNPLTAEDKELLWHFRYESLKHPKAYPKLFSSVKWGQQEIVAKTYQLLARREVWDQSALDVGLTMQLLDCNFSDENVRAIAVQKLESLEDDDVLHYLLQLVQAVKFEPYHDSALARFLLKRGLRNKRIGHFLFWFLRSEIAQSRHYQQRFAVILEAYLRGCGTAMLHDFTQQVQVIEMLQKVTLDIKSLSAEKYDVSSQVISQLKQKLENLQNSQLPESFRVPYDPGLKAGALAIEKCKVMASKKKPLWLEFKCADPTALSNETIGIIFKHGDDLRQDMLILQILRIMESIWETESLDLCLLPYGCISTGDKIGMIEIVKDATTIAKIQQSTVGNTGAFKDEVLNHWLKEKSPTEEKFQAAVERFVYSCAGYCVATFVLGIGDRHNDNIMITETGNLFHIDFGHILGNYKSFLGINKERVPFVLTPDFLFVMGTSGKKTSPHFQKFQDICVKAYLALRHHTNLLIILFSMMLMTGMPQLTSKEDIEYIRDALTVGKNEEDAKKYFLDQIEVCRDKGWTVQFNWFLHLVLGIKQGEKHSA

| Structure (SMILES) | IC50 [1] | IC50 [2] |
| --- | --- | --- |
| CC[S@@+]([O-])c1cc(-c2sc(NC(C)=O)nc2C)cc2c1C(=O)N([C@@H](C)C1CC1)C2 (racemic) [Compound 13, N-(5-(2-((S)-1-cyclopropylethyl)-7-(ethylsulfinyl)-1-oxoisoindolin-5-yl)-4-methylthiazol-2-yl)acetamide] | 3.1 nM | 22 nM |
| CC(=O)Nc1nc(C)c(-c2cc3c(c([S+]([O-])C(C)C)c2)C(=O)N([C@@H](C)C2CC2)C3)s1 (mixture of isomers) [Compound 14, N-(5-(2-((S)-1-cyclopropylethyl)-7-(isopropylsulfinyl)-1-oxoisoindolin-5-yl)-4-methylthiazol-2-yl)acetamide] | 4.2 nM | 27 nM |
| CC(=O)Nc1nc(C)c(-c2cc3c(c([S+](C)[O-])c2)C(=O)N(C(C)(C)C)C3)s1 (racemic) [Compound 17, N-(5-(2-(tert-butyl)-7-(methylsulfinyl)-1-oxoisoindolin-5-yl)-4-methylthiazol-2-yl)acetamide] | 4.5 nM | 118 nM |
| CC(=O)Nc1nc(C(F)F)c(-c2cc3c(c([S@@+](C)[O-])c2)C(=O)N([C@@H](C)C2CC2)C3)s1 (racemic) [Compound 18, N-(5-(2-((S)-1-cyclopropylethyl)-7-(methylsulfinyl)-1-oxoisoindolin-5-yl)-4-(difluoromethyl)thiazol-2-yl)acetamide] | 16 nM | – |
| CC(=O)Nc1nc(C)c(-c2cc3c(c(N4CCOCC4)n2)C(=O)N(C(C)C(F)(F)F)C3)s1 (stereo in doubt) [Compound 37, (S)-N-(4-methyl-5-(4-morpholino-3-oxo-2-(1,1,1-trifluoropropan-2-yl)-2,3-dihydro-1H-pyrrolo[3,4-c]pyridin-6-yl)thiazol-2-yl)acetamide] | 9 nM | – |
| Cc1nc(NC(=O)C2CC2)sc1-c1cc2c(c(P(C)(C)=O)c1)C(=O)N([C@@H](C)C1CC1)C2 [Compound 3, (S)-N-(5-(2-(1-cyclopropylethyl)-7-(dimethylphosphoryl)-1-oxoisoindolin-5-yl)-4-methylthiazol-2-yl)cyclopropanecarboxamide] | 7.7 nM | – |
| Cc1nc(NC(=O)C(C)C)sc1-c1cc2c(c(P(C)(C)=O)c1)C(=O)N([C@@H](C)C1CC1)C2 [Compound 4, (S)-N-(5-(2-(1-cyclopropylethyl)-7-(dimethylphosphoryl)-1-oxoisoindolin-5-yl)-4-methylthiazol-2-yl)isobutyramide] | 4.5 nM | 1850 nM |
| CCP(=O)(CC)c1cc(-c2sc(NC(C)=O)nc2C)cc2c1C(=O)N([C@@H](C)C1CC1)C2 [Compound 5, (S)-N-(5-(2-(1-cyclopropylethyl)-7-(diethylphosphoryl)-1-oxoisoindolin-5-yl)-4-methylthiazol-2-yl)acetamide] | 5.9 nM | 307 nM |
| CC(=O)Nc1nc(C)c(-c2ccc3c(n2)CN([C@@H](C)C2CC2)C3=O)s1 [Compound 9, (S)-N-(5-(6-(1-cyclopropylethyl)-5-oxo-6,7-dihydro-5H-pyrrolo[3,4-b]pyridin-2-yl)-4-methylthiazol-2-yl)acetamide] | 22 nM | – |
| CC(=O)Nc1nc(C)c(-c2cc3c(c(N4CCCC4=O)n2)C(=O)N([C@@H](C)C2CC2)C3)s1 [Compound 25, (S)-N-(5-(2-(1-cyclopropylethyl)-3-oxo-4-(2-oxopyrrolidin-1-yl)-2,3-dihydro-M-pyrrolo[3,4-c]pyridin-6-yl)-4-methylthiazol-2-yl)acetamide] | 3.8 nM | 446 nM |
| CC(=O)Nc1nc(C)c(-c2cc3c(c(C)n2)C(=O)N([C@@H](C)C2CC2)C3)s1 [Compound 27, (S)-N-(5-(2-(1-cyclopropylethyl)-4-methyl-3-oxo-2,3-dihydro-1H-pyrrolo[3,4-c]pyridin-6-yl)-4-methylthiazol-2-yl)acetamide] | 29 nM | 29 nM |
| CC(=O)Nc1nc(C)c(-c2cc3c(c(NC(=O)N(C)C)n2)C(=O)N([C@@H](C)C2CC2)C3)s1 [Compound 28, (S)-N-(5-(2-(1-cyclopropylethyl)-4-(3,3-dimethylureido)-3-oxo-2,3-dihydro-1H-pyrrolo[3,4-c]pyridin-6-yl)-4-methylthiazol-2-yl)acetamide] | 1.5 nM | 65 nM |
| CC(=O)Nc1nc(C)c(-c2cc3c(c(C(=O)N(C)C)n2)C(=O)N([C@@H](C)C2CC2)C3)s1 [Compound 29, (S)-6-(2-acetamido-4-methylthiazol-5-yl)-2-(1-cyclopropylethyl)-N,N-dimethyl-3-oxo-2,3-dihydro-1H-pyrrolo[3,4-c]pyridine-4-carboxamide] | 2.5 nM | 3240 nM |
| CC(=O)Nc1nc(C)c(-c2cc3c(c(C(=O)O)n2)C(=O)N([C@@H](C)C2CC2)C3)s1 [Compound 30, (S)-6-(2-acetamido-4-methylthiazol-5-yl)-2-(1-cyclopropylethyl)-3-oxo-2,3-dihydro-1H-pyrrolo[3,4-c]pyridine-4-carboxylic acid] | 56 nM | – |
| CC(=O)Nc1nc(C)c(-c2cc3c(c(C(N)=O)n2)C(=O)N([C@@H](C)C2CC2)C3)s1 [Compound 31, (S)-6-(2-acetamido-4-methylthiazol-5-yl)-2-(1-cyclopropylethyl)-3-oxo-2,3-dihydro-1H-pyrrolo[3,4-c]pyridine-4-carboxamide] | 2.3 nM | – |
| CC(=O)Nc1nc(C)c(-c2cc3c(c(C(=O)N4CCOCC4)n2)C(=O)N([C@@H](C)C2CC2)C3)s1 [Compound 33, (S)-N-(5-(2-(1-cyclopropylethyl)-4-(morpholine-4-carbonyl)-3-oxo-2,3-dihydro-1H-pyrrolo[3,4-c]pyridin-6-yl)-4-methylthiazol-2-yl)acetamide] | 6.5 nM | – |
| [2H]C([2H])([2H])Oc1nc(-c2sc(NC(C)=O)nc2C)cc2c1C(=O)N([C@@H](C)C1CC1)C2 [Compound 43, (S)-N-(5-(2-(1-cyclopropylethyl)-4-(methoxy-d3)-3-oxo-2,3-dihydro-1H-pyrrolo[3,4-c]pyridin-6-yl)-4-methylthiazol-2-yl)acetamide] | 2.6 nM | – |
| CC(=O)Nc1nc(C)c(-c2cc3c(c(NC(=O)C4CC4C#N)n2)C(=O)N([C@@H](C)C2CC2)C3)s1 (stereo partly drawn) [Compound 45, N-(6-(2-acetamido-4-methylthiazol-5-yl)-2-((S)-1-cyclopropylethyl)-3-oxo-2,3-dihydro-1H-pyrrolo[3,4-c]pyridin-4-yl)-2-cyanocyclopropane-1-carboxamide] | 0.8 nM | – |
| CC(=O)Nc1nc(C)c(-c2cc3c(c(N4CCC(O)C4)n2)C(=O)N([C@@H](C)C2CC2)C3)s1 (stereo partly drawn) [Compound 47, N-(5-(2-((S)-1-cyclopropylethyl)-4-(3-hydroxypyrrolidin-1-yl)-3-oxo-2,3-dihydro-1H-pyrrolo[3,4-c]pyridin-6-yl)-4-methylthiazol-2-yl)acetamide] | 0.61 nM | – |
| CC(=O)Nc1nc(C)c(-c2cc3c(c(OC4CCOC4)n2)C(=O)N([C@@H](C)C2CC2)C3)s1 (stereo partly drawn) [Compound 51, N-(5-(2-((S)-1-cyclopropylethyl)-3-oxo-4-((tetrahydrofuran-3-yl)oxy)-2,3-dihydro-1H-pyrrolo[3,4-c]pyridin-6-yl)-4-methylthiazol-2-yl)acetamide] | 0.65 nM | – |
| CC(=O)Nc1nc(Cl)c(-c2cc3c(c(N4CCOCC4)n2)C(=O)N([C@@H](C)C2CC2)C3)s1 [Compound 53, (S)-N-(4-chloro-5-(2-(1-cyclopropylethyl)-4-morpholino-3-oxo-2,3-dihydro-1H-pyrrolo[3,4-c]pyridin-6-yl)thiazol-2-yl)acetamide] | 1.8 nM | – |
